The source made the active and inactive calls. The calls are words filed in the database; no cut-off is given here.
Tests used:
A549 = assay: Growth inhibition of human A549 cells incubated for 48 hrs by trypan blue dye exclusion assay; format: functional, cell-based
MDA-MB-231 [1] = assay: Growth inhibition of human MDA-MB-231 cells incubated for 48 hrs by trypan blue dye exclusion assay; format: functional, cell-based
Homo sapiens = organism: Homo sapiens; assay: Growth inhibition of human CRL11174 cells incubated for 48 hrs by trypan blue dye exclusion assay; format: functional
K562 = assay: Growth inhibition of human K562 cells incubated for 48 hrs by trypan blue dye exclusion assay; format: functional, cell-based
HL-60 [2] = assay: Growth inhibition of human HL60 cells incubated for 48 hrs by trypan blue dye exclusion assay; format: functional, cell-based
Mus musculus [3] = assay: Reduction in [18F]-2-DG uptake in cardiac tissue of C57B1/6 mouse transplanted with mouse LLC cells at 0.07 mg/g, ip after 30 mins post dose by micro-PET method; format: functional, organism-based
[4] = target: T1, 6-phosphofructo-2-kinase/fructose-2,6-bisphosphatase 3 (Homo sapiens, UniProt Q16875); assay: Mixed type inhibition of human PFKFB3 expressed in Escherichia coli BL21 (DE3) assessed as reduction in NADH consumption using fructose-6-phosphate incubated for 15 mins by spectrophotometry based pyruvate kinase and LDH enzyme coupled kinetic assay
T1 sequence (Q16875 whole entry): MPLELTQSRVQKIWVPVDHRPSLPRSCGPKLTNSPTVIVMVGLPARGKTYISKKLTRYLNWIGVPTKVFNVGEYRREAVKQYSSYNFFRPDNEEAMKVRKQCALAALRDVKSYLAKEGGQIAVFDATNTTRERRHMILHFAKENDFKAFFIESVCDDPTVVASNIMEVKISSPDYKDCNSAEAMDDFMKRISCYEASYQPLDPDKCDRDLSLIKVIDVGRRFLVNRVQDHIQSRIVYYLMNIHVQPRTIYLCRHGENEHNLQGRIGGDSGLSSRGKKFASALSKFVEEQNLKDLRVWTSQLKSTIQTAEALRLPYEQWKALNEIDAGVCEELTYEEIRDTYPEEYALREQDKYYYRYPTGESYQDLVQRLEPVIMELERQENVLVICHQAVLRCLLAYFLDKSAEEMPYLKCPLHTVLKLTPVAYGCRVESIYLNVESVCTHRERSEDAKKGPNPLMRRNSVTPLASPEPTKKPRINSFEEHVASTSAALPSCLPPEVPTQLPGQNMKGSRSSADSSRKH

[5] = Growth inhibition of human NHBE cells at 33 uM incubated for 48 to 72 hrs by trypan blue dye exclusion assay; format: cell-based
NHBE [6] = assay: Growth inhibition of human NHBE cells immortalized with human telomerase and large-T antigen and transformed with mutated Ras protein at 1 uM incubated for 48 to 72 hrs by trypan blue dye exclusion assay; format: functional, cell-based
NHBE [7] = assay: Growth inhibition of human NHBE cells immortalized with human telomerase and large-T antigen and transformed with mutated Ras protein at 10 uM incubated for 48 to 72 hrs by trypan blue dye exclusion assay; format: functional, cell-based
[8] = Potency index, ratio of IC50 for 2-DG to IC50 for test compound for growth inhibition of human NHBE cells immortalized with human telomerase and large-T antigen and transformed with mutated Ras protein at 1 uM incubated for 48 to 72 hrs by trypan blue dye exclusion assay; format: functional
[9] = Potency index, ratio of IC50 for 3BrPA to IC50 for test compound for growth inhibition of human NHBE cells immortalized with human telomerase and large-T antigen and transformed with mutated Ras protein at 1 uM incubated for 48 to 72 hrs by trypan blue dye exclusion assay; format: functional
Jurkat [10] = assay: Inhibition of cell proliferation of human Jurkat cells expressing inducible FLAG-tagged PFKFB incubated for 48 hrs by trypan blue dye exclusion assay; format: functional, cell-based
Jurkat [11] = assay: Inhibition of cell proliferation of human Jurkat cells expressing inducible FLAG-tagged PFKFB at 10 uM incubated for 36 hrs by trypan blue dye exclusion assay; format: functional, cell-based
Jurkat [12] = assay: […] cell cycle arrest in human Jurkat cells expressing inducible FLAG-tagged PFKFB assessed as accumulation at G2/M phase by propidium iodide staining based flow cytometry; format: functional
Jurkat [13] = assay: Reduction in 2-deoxy-glucose uptake in human Jurkat cells expressing inducible FLAG-tagged PFKFB at 10 uM measured within 4 hrs using [14C]-2-deoxy-glucose by scintillation counting method; format: functional, cell-based
Jurkat [14] = assay: Reduction in Fru-2,6-BP production in human Jurkat cells expressing inducible FLAG-tagged PFKFB at 10 uM measured within 4 hrs; format: functional, cell-based
Jurkat [15] = assay: Reduction in lactate secretion in human Jurkat cells expressing inducible FLAG-tagged PFKFB at 10 uM after 8 hrs by lactate oxidase based colorimetric assay; format: functional, cell-based
Jurkat [16] = assay: Reduction in NADH level in human Jurkat cells expressing inducible FLAG-tagged PFKFB at 10 uM after 16 hrs; format: functional, cell-based
Jurkat [17] = assay: Reduction in NAD+ level in human Jurkat cells expressing inducible FLAG-tagged PFKFB at 10 uM after 24 hrs; format: functional, cell-based
Jurkat [18] = assay: Reduction in ATP level in human Jurkat cells expressing inducible FLAG-tagged PFKFB at 10 uM after 24 hrs; format: functional, cell-based
Jurkat [19] = assay: Suppression of glycolytic flux into lactate in human Jurkat cells expressing inducible FLAG-tagged PFKFB at 10 uM after 36 hrs by NMR spectroscopy; format: functional, cell-based
Jurkat [20] = assay: Suppression of glycolytic flux into alanine in human Jurkat cells expressing inducible FLAG-tagged PFKFB at 10 uM after 36 hrs by NMR spectroscopy; format: functional, cell-based
Jurkat [21] = assay: Potency index, ratio of IC50 for growth inhibition of PFKFB3+/+ht/LT/Ras human Jurkat cells to IC50 for growth inhibition of PFKFB3+/-ht/LT/Ras human Jurkat cells; format: functional
MDA-MB-231 [22] = assay: Antitumor activity against human MDA-MB-231 cells xenografted in Balb/c mouse assessed as tumor growth inhibition at 0.07 mg/g, ip dosed as cyclical regimen of 3 daily injections followed by 3 days of without treatment; format: functional
[23] = Antitumor activity against human HL60 cells xenografted in Balb/c mouse assessed as tumor growth inhibition at 0.07 mg/g, ip dosed as 2 sequential daily injections followed by 7 consecutive days of without treatment; format: functional, HL-60
HL-60 [24] = assay: Antitumor activity against human HL60 cells xenografted in Balb/c mouse assessed as tumor growth inhibition at 0.07 mg/g, ip dosed as 2 sequential daily injections followed by 7 consecutive days of without treatment and subsequent second dosing and measured on day9; format: functional, organism-based
Mus musculus [25] = assay: Reduction in F2,6BP production excised tumor of C57B1/6 mouse transplanted with mouse LLC cells at 0.07 mg/g, ip after 4 hrs post dose; format: functional, organism-based
Mus musculus [26] = assay: Reduction in [18F]-2-DG uptake in tumor of C57B1/6 mouse transplanted with mouse LLC cells at 0.07 mg/g, ip after 30 mins post dose by micro-PET method; format: functional, organism-based
U-87MG ATCC = assay: Antitumor activity against human U87MG cells implanted in C57Bc16 mouse assessed as inhibition of tumor size at 20 mg/kg, ip measured during 7 to 25 days after tumor inoculation; format: functional, organism-based
CT26 = assay: Antitumor activity against mouse CT26 cells implanted in C57Bc16 mouse assessed as inhibition of tumor size at 20 or 23 mg/kg, ip measured during 7 to 22 days after tumor inoculation; format: functional, organism-based
[27] = Solubility in Cremophore:EToH:saline solution in normal conditions using Amber vials after 2 hrs by HPLC method (reference value: 1 mg/ml at 0 hrs); format: physicochemical
Lewis lung carcinoma = assay: Antitumor activity against mouse LLC cells implanted in C57Bc16 mouse assessed as inhibition of tumor size at 25 mg/kg, ip dosed on days 1,2 and 3 and 35 mg/kg, ip on days Antitumor activity against mouse LLC cells implanted in C57Bc16 mouse assessed as inhibition of tumor size at 25 mg/kg, ip dosed on days 7,8,9,13,14 and 15; format: functional, organism-based
[28] = Solubility in Cremophore:EToH:saline solution in normal conditions using Amber vials after 8 hrs by HPLC method (reference value: 1 mg/ml at 0 hrs); format: physicochemical
[29] = Solubility in Cremophore:EToH:saline solution in normal conditions using Amber vials after 4 hrs by HPLC method (reference value: 1 mg/ml at 0 hrs); format: physicochemical
[30] = target: T1, 6-phosphofructo-2-kinase/fructose-2,6-bisphosphatase 3; conditions: 150 uM
Description: Inhibition of recombinant PFKFB3 (unknown origin) assessed as reduction in enzyme kinetic rate at 150 uM

Jurkat [31] = assay: Inhibition of cell proliferation of human Jurkat cells incubated for 72 hrs by Alamar blue assay; format: functional, cell-based

In the case of `O=C(/C=C/c1cccc2ccccc12)c1ccncc1`, the “growth inhibition (GI)” value (A549) is reported as “Active”, the “growth inhibition (GI)” value (MDA-MB-231 [1]) is reported as “Active” and the “growth inhibition (GI)” value (Homo sapiens) is reported as “Active”. The “growth inhibition (GI)” value (K562) was “Active” and the “growth inhibition (GI)” value (HL-60 [2]) was “Active”.
In the case of `O=C(/C=C/c1cccnc1)c1ccncc1`, the Activity (Mus musculus [3]) is reported as “Active”, the Ki [4] is reported as 25.1 µM and the Activity [5] is reported as “Non-toxic”. The “growth inhibition (GI)” value (NHBE [6]) was “Active”, the “growth inhibition (GI)” value (NHBE [7]) was “Active” and the “Ratio IC50” value [8] was 10. The “Ratio IC50” value [9] was 10, the inhibition (Jurkat [10]) was “Dose-dependent effect” and the inhibition (Jurkat [11]) was “Active”. For the same molecule, the Activity (Jurkat [12]) was “Active”, the Activity (Jurkat [13]) was “Active” and the Activity (Jurkat [14]) was “Active”. The Activity (Jurkat [15]) was “Active”, the Activity (Jurkat [16]) was “Active” and the Activity (Jurkat [17]) was “Active”. The Activity (Jurkat [18]) was “Active”, the Activity (Jurkat [19]) was “Active” and the Activity (Jurkat [20]) was “inactive”. For the same molecule, the “Ratio IC50” value (Jurkat [21]) was 2, the Imax (MDA-MB-231 [22]) was 64% and the TGI [23] was greater than 75%. For the same molecule, the TGI (HL-60 [24]) was “Active”, the Activity (Mus musculus [25]) was “Active” and the Activity (Mus musculus [26]) was “Active”.
For `Cc1cccc2ccc(/C=C/C(=O)c3ccncc3)nc12`, the inhibition (U-87MG ATCC) was “Active” and the inhibition (CT26) was “Active”.
For `O=C(/C=C/c1ccccc1Cl)c1ccccn1`, the “growth inhibition (GI)” value (A549) was “Active”, the “growth inhibition (GI)” value (MDA-MB-231 [1]) was “Active” and the “growth inhibition (GI)” value (Homo sapiens) was “Active”. For the same molecule, the “growth inhibition (GI)” value (K562) was “Active” and the “growth inhibition (GI)” value (HL-60 [2]) was “Active”.
With `O=C(/C=C/c1ccc(Cl)cc1)c1cccnc1` the “growth inhibition (GI)” value (A549) was “Active”, the “growth inhibition (GI)” value (MDA-MB-231 [1]) was “Active” and the “growth inhibition (GI)” value (Homo sapiens) was “Active”. For the same molecule, the “growth inhibition (GI)” value (K562) was “Dose-dependent effect” and the “growth inhibition (GI)” value (HL-60 [2]) was “Dose-dependent effect”.
For `Cl.O=C(/C=C/c1ccc2cccc(O)c2n1)c1ccncc1`, the solubility at 2 h [27] was 1000 µg/mL, the inhibition (Lewis lung carcinoma) was “Active” and the solubility at 8 h [28] was 1000 µg/mL. For the same molecule, the solubility at 4 h [29] was 1000 µg/mL.
For `O=C(/C=C/c1ccccc1Cl)c1cccnc1`, the “growth inhibition (GI)” value (A549) was “Active”, the “growth inhibition (GI)” value (MDA-MB-231 [1]) was “Active” and the “growth inhibition (GI)” value (Homo sapiens) was “Active”. For the same molecule, the “growth inhibition (GI)” value (K562) was “Active” and the “growth inhibition (GI)” value (HL-60 [2]) was “Active”.
With `O=C(/C=C/c1ccc2ccccc2n1)c1cccnc1` the “growth inhibition (GI)” value (A549) was “Active”, the “growth inhibition (GI)” value (MDA-MB-231 [1]) was “Active” and the “growth inhibition (GI)” value (Homo sapiens) was “Active”. The “growth inhibition (GI)” value (K562) was “Active”, the “growth inhibition (GI)” value (HL-60 [2]) was “Active” and the inhibition [30] was greater than 80%.
With `O=C(/C=C/c1cnc2ccccc2c1)c1ccncc1` the IC50 (Jurkat [31]) was greater than 4 µM.
With `CC(=O)Nc1ccc(/C=C/C(=O)c2ccncc2)cc1` the “growth inhibition (GI)” value (A549) was “Active”, the “growth inhibition (GI)” value (MDA-MB-231 [1]) was “Active” and the “growth inhibition (GI)” value (Homo sapiens) was “Active”. For the same molecule, the “growth inhibition (GI)” value (K562) was “Active” and the “growth inhibition (GI)” value (HL-60 [2]) was “Active”.
